This experiment deals with T1, Recombinant human GSK3β (Homo sapiens, UniProt P49841).
T1 construct: His-tag; made in house; host or cells: Sf9 insect cells / baculovirus
In words: GSK-3β (Glycogen Synthase Kinase) cell free enzyme assay. It counts as biochemical. The conditions noted are these: for IC50: cell free enzyme assay; for inhibition at 1 µM: read-out: Percent inhibition at 1 μM. In short, it runs like this: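 This cell-free kinase assay measured [33P] transfer from [33P]ATP gamma phosphate into the biotinylated peptide bio-LC-S-R-H-S-S-P-H-Q-pS-E-D-E-E-E-OH. After 60 min at RT, reactions were stopped with 0.66 volume of PBS lacking Ca or Mg containing 12.5 mM EDTA, 0.25% Triton-X 100, 125 uM ATP and 6.2 mg/ml streptavidin SPA beads. Bead-bound radioactivity was counted as CPM on a Trilux scintillation counter.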

[1] abbreviates: 1 μM, GSK-3β cell free enzyme assay, Examples 42-60.

Read-outs that look alike come from different tables or passages of the source.

T1 sequence (P49841 whole entry): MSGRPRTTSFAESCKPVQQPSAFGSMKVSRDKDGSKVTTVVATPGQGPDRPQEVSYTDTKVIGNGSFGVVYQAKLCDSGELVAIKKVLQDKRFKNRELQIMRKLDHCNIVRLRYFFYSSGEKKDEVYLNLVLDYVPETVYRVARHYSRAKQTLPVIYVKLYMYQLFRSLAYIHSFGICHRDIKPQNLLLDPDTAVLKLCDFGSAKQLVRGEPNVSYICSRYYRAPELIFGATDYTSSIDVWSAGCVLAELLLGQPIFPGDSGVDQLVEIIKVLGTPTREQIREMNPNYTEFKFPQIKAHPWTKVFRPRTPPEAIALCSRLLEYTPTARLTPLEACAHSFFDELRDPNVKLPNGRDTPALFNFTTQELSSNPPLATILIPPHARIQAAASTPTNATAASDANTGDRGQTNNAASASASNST

One may read the IC50 as the concentration needed to halve the response being measured. On to `CCOC(=O)N1CCC[C@@H]1CN(CC)c1nc(-c2ccncn2)cc(=O)n1C` [Example 227, Ethyl (2R)-2-{[ethyl(1-methyl-6-oxo-1,6-dihydro-4,4′-bipyrimidin-2-yl)amino]methyl}pyrrolidine-1-carboxylate], for which the IC50 (Examples 222-234) turned out to be 0.825 nM. With `CN(c1nc(-c2ccncc2F)cc(=O)n1C)[C@H]1[C@@H]2CN(C(=O)c3ccccc3)C[C@@H]21` [Example 150, 2-{[(1R,5S,6s)-3-Benzoyl-3-azabicyclo[3.1.0]hex-6-yl](methyl)amino}-6-(3-fluoropyridin-4-yl)-3-methylpyrimidin-4(3H)-one], the IC50 (Examples 62-155) stood at 1.51 nM.

For orientation: inhibition means the change of the read-out against control, counted positive when it falls. In the case of `CCN(c1nc(-c2ccncc2)cc(=O)n1C)C1CCCN(S(=O)(=O)Cc2ccccc2)CC1` (centres unmarked) [Example 197, 2-{[1-(Benzylsulfonyl)azepan-4-yl](ethyl)amino}-3-methyl-6-pyridin-4-ylpyrimidin-4(3H)-one], the inhibition at 1 µM (1 μM, Examples 157-199) is 93%. Consider `CN(c1nc(-c2ccncc2F)cc(=O)n1C)[C@H]1[C@@H]2CN(C(=O)c3ccc(C#N)cc3)C[C@@H]21` [Example 136, 4-{[(1R,5S,6s)-6-{[4-(3-Fluoropyridin-4-yl)-1-methyl-6-oxo-1,6-dihydropyrimidin-2-yl](methyl)amino}-3-azabicyclo[3.1.0]hex-3-yl]carbonyl}benzonitrile], for which the IC50 (Examples 62-155) amounted to 42.6 nM. `CC(=O)N1CCC(N(C)c2nc(-c3ccncc3)cc(=O)n2C)C1` (centres unmarked) [Example 52, 2-[(1-Acetylpyrrolidin-3-yl)(methyl)amino]-3-methyl-6-pyridin-4-ylpyrimidin-4(3H)-one]: the inhibition at 1 µM under setting [1] was 51%. Turning to `Cn1c(NC2CCCN(S(=O)(=O)Cc3ccccc3)CC2)nc(-c2ccncc2)cc1=O` (centres unmarked) [Example 192, 2-{[1-(Benzylsulfonyl)azepan-4-yl]amino}-3-methyl-6-pyridin-4-ylpyrimidin-4(3H)-one], the inhibition at 1 µM (1 μM, Examples 157-199) was found to be 81%. With `CN(c1nc(-c2ccncc2F)cc(=O)n1C)[C@H]1[C@@H]2CN(C(=O)c3ccc(F)c(Cl)c3)C[C@@H]21` [Example 124, 2-{[(1R,5S,6s)-3-(3-Chloro-4-fluorobenzoyl)-3-azabicyclo[3.1.0]hex-6-yl](methyl)amino}-6-(3-fluoropyridin-4-yl)-3-methylpyrimidin-4(3H)-one], the IC50 (Examples 62-155) was 4.58 nM. As for `CCN(c1nc(-c2ccncc2)cc(=O)n1C)C1CCCN(Cc2ccccc2)CC1` (centres unmarked) [Example 259, 2-[(1-Benzylazepan-4-yl)(ethyl)amino]-3-methyl-6-pyridin-4-ylpyrimidin-4(3H)-one], the inhibition at 1 µM (1 μM, Examples 236-262) is 83%. Take `CN(c1nc(-c2ccncc2F)cc(=O)n1C)[C@H]1[C@@H]2CN(c3nnnn3-c3cccc(OC(F)(F)F)c3)C[C@@H]21` [Example 291, 6-(3-Fluoropyridin-4-yl)-3-methyl-2-{methyl[(1R,5S,6s)-3-{1-[3-(trifluoromethoxy)phenyl]-1H-tetrazol-5-yl}-3-azabicyclo[3.1.0]hex-6-yl]amino}pyrimidin-4(3H)-one]: the IC50 (Examples 265-291) is 5.99 nM.

For the molecule `CCN(c1nc(-c2ccncc2)cc(=O)n1C)C1CCCN(C(=O)c2ccccc2)CC1` (centres unmarked) [Example 71, 2-[(1-Benzoylazepan-4-yl)(ethyl)amino]-3-methyl-6-pyridin-4-ylpyrimidin-4(3H)-one], for the setting “Examples 62-155”, the IC50 was 36.3 nM. Regarding `CCN(c1nc(-c2ccncc2)cc(=O)n1C)C1CCN(S(=O)(=O)Cc2ccccc2)CC1` [Example 199, 2-{[1-(Benzylsulfonyl)piperidin-4-yl](ethyl)amino}-3-methyl-6-pyridin-4-ylpyrimidin-4(3H)-one], the inhibition at 1 µM (1 μM, Examples 157-199) was 89%. As for `CN(c1nc(-c2ccncc2F)cc(=O)n1C)[C@H]1[C@@H]2CN(c3nc4ccccc4o3)C[C@@H]21` [Example 270, 2-{[(1R,5S,6s)-3-[1,3-Benzoxazol-2-yl)-3-azabicyclo[3.1.0]hex-6-yl](methyl)amino}-6-(3-fluoropyridin-4-yl)-3-methylpyrimidin-4(3H)-one], the IC50 (Examples 265-291) is 24.6 nM. As for `COC(=O)N1CCCC(Nc2nc(-c3ccncc3)cc(=O)n2C)CC1` (centres unmarked) [Example 205, Methyl 4-[(1-methyl-6-oxo-4-pyridin-4-yl-16-dihydropyrimidin-2-yl)amino]azepane-1-carboxylate], the inhibition at 1 µM (1 μM, Examples 201-221) is 86%. As for `CC(=O)N1CCCC(N(C)c2nc(-c3ccncc3)cc(=O)n2C)CC1` (centres unmarked) [Example 53, 2-[(1-Acetylazepan-4-yl)(methyl)amino]-3-methyl-6-pyridin-4-ylpyrimidin-4(3H)-one], the inhibition at 1 µM under setting [1] was found to be 79%.

Regarding `Cn1c(N[C@H]2CN(S(C)(=O)=O)C[C@@H]2F)nc(-c2ccncc2)cc1=O` [Example 158, 2-{[(3S,4S)-4-Fluoro-1-(methylsulfonyl)pyrrolidin-3-yl]amino}-3-methyl-6-pyridin-4-ylpyrimidin-4(3H)-one], under “1 μM, Examples 157-199”, the inhibition at 1 µM is 74%. With `Cn1c(N2[C@@H]3CC[C@H]2CN(S(=O)(=O)c2ccccc2)C3)nc(-c2ccncc2)cc1=O` [Example 169, 3-Methyl-2-[(1R,5S)-3-(phenylsulfonyl)-38-diazabicyclo[3.2.1]oct-8-yl]-6-pyridin-4-ylpyrimidin-4(3H)-one], the “Percent inhibition at 1 μM” value (1 μM, Examples 157-199) was 92%. In the case of `CCCC(=O)N1C[C@@H]2[C@H](C1)[C@H]2N(C)c1nc(-c2ccncc2F)cc(=O)n1C` [Example 138, 2-{[(1R,5S,6s)-3-Butyryl-3-azabicyclo[3.1.0]hex-6-yl](methyl)amino}-6-(3-fluoropyridin-4-yl)-3-methylpyrimidin-4(3H)-one], for the setting “Examples 62-155”, the IC50 came out at 13.8 nM. Consider `CCN(c1nc(-c2ccncc2)cc(=O)n1C)C1CCN(C(C)=O)C1` (centres unmarked) [Example 54, 2-[(1-Acetylpyrrolidin-3-yl)(ethyl)amino]-3-methyl-6-pyridin-4-ylpyrimidin-4(3H)-one], for which, under setting [1], the inhibition at 1 µM was determined as 64%. For `CN(c1nc(-c2ccncc2F)cc(=O)n1C)[C@H]1[C@@H]2CN(C(=O)C3CCC3)C[C@@H]21` [Example 107, 2-{[(1R,5S,6s)-3-(Cyclobutylcarbonyl)-3-azabicyclo[3.1.0]hex-6-yl](methyl)amino}-6-(3-fluoropyridin-4-yl)-3-methylpyrimidin-4(3H)-one], the IC50 (Examples 62-155) came out at 18.4 nM. As to `CCN(c1nc(-c2ccncc2)cc(=O)n1C)C1CCN(S(=O)(=O)c2ccccc2)CC1` [Example 187, 2-{Ethyl[1-(phenylsulfonyl)piperidin-4-yl]amino}-3-methyl-6-pyridin-4-ylpyrimidin-4(3H)-one], the inhibition at 1 µM (1 μM, Examples 157-199) stood at 102%. On to `Cn1c(NCC2CCN(C(=O)OC(C)(C)C)C2)nc(-c2ccncc2)cc1=O` (centres unmarked) [Example 34, tert-butyl 3-{[(1-Methyl-6-oxo-4-pyridin-4-yl-1,6-dihydropyrimidin-2-yl)amino]methyl} pyrrolidine-1-carboxylate], for which the IC50 (Examples 1-35) stood at 113 nM.

For `CN(c1nc(-c2ccncc2F)cc(=O)n1C)[C@H]1[C@@H]2CN(C(=O)c3cccnc3Cl)C[C@@H]21` [Example 111, 2-[{(1R,5S,6s)-3-[(2-Chloropyridin-3-yl)carbonyl]-3-azabicyclo[3.1.0]hex-6-yl}(methyl)amino]-6-(3-fluoropyridin-4-yl)-3-methylpyrimidin-4(3H)-one], for the setting “Examples 62-155”, the half-maximal inhibitory concentration (IC50) was determined as 2.2 nM. On to `CN(c1nc(-c2ccncc2F)cc(=O)n1C)[C@H]1[C@@H]2CN(C(=O)c3ccc(F)c(F)c3)C[C@@H]21` [Example 153, 2-{[(1R,5S,6s)-3-(3,4-Difluorobenzoyl)-3-azabicyclo[3.1.0]hex-6-yl](methyl)amino}-6-(3-fluoropyridin-4-yl)-3-methylpyrimidin-4(3H)-one], for which the IC50 (Examples 62-155) was 7.23 nM.
